Measured values published in PMC9169360, “Molecular Imaging-Derived Biomarker of Cardiac Nerve Integrity — Introducing High NET Affinity PET Probe ^18F-AF78” (Theranostics, 2022).
Where two headings read alike, the source gives them in different places.

How the values were obtained:
[1] = target: T1, norepinephrine transporter (NET) (Homo sapiens, UniProt P23975); test: Competitive cell uptake assay against 3H-norepinephrine in SK-N-SH human neuroblastoma cells; assay type: cell-based
T1 construct: cells naturally expressing NET; host or cells: SK-N-SH human neuroblastoma cells
Text: SK-N-SH (human neuroblastoma cell line) cells naturally expressing NET were cultivated according to the instructions from the supplier (Sigma-Aldrich Chemie GmbH, Taufkirchen, Germany). […] Cell lysates were collected and measured in a liquid scintillation analyzer.

[2] = design: method as in PMID 28322043; conditions: rhesus macaque monkeys, not before 90 min after radiotracer injection; cited from earlier work
[3] = Dynamic PET imaging and biodistribution of the radiotracer in healthy nonhuman primates; assay type: in vivo, cynomolgus monkeys; conditions: NHP controls
Method: (§1) Male Wistar rats (n = 4, weighing 250-400 g) and New Zealand white rabbits (n = 5, weighing 3.2-3.6 kg) were used for cardiac uptake studies. Anesthesia was induced and maintained during the experiment by 2% isoflurane. Large animal PET studies were performed on cynomolgus monkeys (n = 4, weighing 3.9-4.2 kg). Induction of anesthesia in NHPs was conducted by intramuscular injection of ketamine (1.5 mg/kg) and xylazine (0.6 mg/kg) to allow the preparation and handling of the animals. After a tracheal cannula was inserted, 1.5% sevoflurane (SEVOFLURANE Inhalation Solution, Pfizer Japan Inc., Tokyo, Japan) vaporized with 100% oxygen was inhaled, and the tidal volume and respiratory rate of the ventilator were monitored and kept in the normal range throughout the imaging sessions with an anesthesia workstation (Apollo®, Drägerwerk AG & Co. KGaA, Lübeck, Germany).
NHPs were maintained under anesthesia during imaging and were studied with a PET scanner (PCA-2000A, Toshiba Medical Systems Corporation, Tochigi, Japan). After a 5-min transmission scan and a bolus intravenous (i.v.) injection of the radiotracer ^18F-AF78 (approximately 20 MBq) via the saphenous vein, a 60-min dynamic PET scan (10 s × 12, 30 s × 6, and 300 s × 11) was initiated. For the blocking study, DMI was injected 10 min before radiotracer administration, after which the PET scan commenced immediately (n = 4). For the DMI chase study, DMI (1 mg/kg, n = 4) was injected 10 min after radiotracer administration, while the PET scan was initiated simultaneously with radiotracer administration. The catecholamine releasing stimulator tyramine (TYR) was also used in a chase protocol, with 50 µg/kg each injection (n = 4) injected intermittently (5 times, 10-min intervals) after radiotracer administration. The radiotracers ^18F-AF78 and ^123I-MIBG were formulated in saline for the animal studies. Control animals received normal saline. The inhibitors PhB, DMI and TYR were first dissolved in a minimum amount of DMSO and diluted with saline for administration with a final concentration of DMSO lower than 10%. The experimental timeline is provided in the supplementary material.
(§2) PET imaging for rats, rabbits and NHPs was performed from the chest to the upper abdomen, including the heart, lungs, liver and part of the intestines. The reconstructed images were analyzed using AMIDE imaging software (version 1.0.1). For kinetic studies in rats and NHPs, the tissue uptake was determined as standardized uptake values (SUVs), from which time-activity curves of different organs, e.g., heart, blood, lung and liver, were generated with transmission computed tomography images for topographic localization.

[4] = test system: norepinephrine transporter (NET); test: PET kinetic studies in nonhuman primates with DMI blocking, DMI chase and tyramine chase; assay type: in vivo, cynomolgus monkeys; conditions: NHP heart, 60 min
Method: as §1
NHPs were maintained under anesthesia during imaging and were studied with a PET scanner (PCA-2000A, Toshiba Medical Systems Corporation, Tochigi, Japan). After a 5-min transmission scan and a bolus intravenous (i.v.) injection of the radiotracer ^18F-AF78 (approximately 20 MBq) via the saphenous vein, a 60-min dynamic PET scan (10 s × 12, 30 s × 6, and 300 s × 11) was initiated. For the blocking study, DMI was injected 10 min before radiotracer administration, after which the PET scan commenced immediately (n = 4). For the DMI chase study, DMI (1 mg/kg, n = 4) was injected 10 min after radiotracer administration, while the PET scan was initiated simultaneously with radiotracer administration. […]
as §2

[5] = target: T2, norepinephrine transporter (NET) (Rattus norvegicus, UniProt Q63380); test: PET imaging and biodistribution in rats with or without PhB blocking; assay type: in vivo, Wistar rats
T2 construct: from tissue; host or cells: heart of living Wistar rats (in vivo PET, ex vivo tissue counting)
Method: as §1
A small-animal PET system (microPET FOCUS 120, Siemens, Erlangen, Germany) was used for the rat studies. […] The organ-to-blood ratios were calculated following weight and decay correction of tissue counts.
PET imaging for rats, rabbits and NHPs was performed from the chest to the upper abdomen, including the heart, lungs, liver and part of the intestines. The reconstructed images were analyzed using AMIDE imaging software (version 1.0.1). […]

[6] = target: T3, norepinephrine transporter (NET) (Oryctolagus cuniculus, UniProt G1TDF9); test: PET imaging and cardiac uptake in rabbits with or without DMI blocking; assay type: in vivo, New Zealand white rabbits; conditions: DMI 1.5 mg/kg 10 min before tracer, SUV, n = 5
T3 construct: from tissue; host or cells: heart of living New Zealand white rabbits (in vivo PET, gamma counting)
Method: as §1
^18F-AF78 (3-4 MBq) and ^123I-MIBG (approximately 2.5 MBq) were injected into rabbits maintained under anesthesia via the marginal ear vein in a single dose. The NET blocker DMI (1.5 mg/kg) was injected 10 min before radiotracer administration in the blocking study. A 10-min dynamic scan was initiated immediately after the radiotracer injection. The animals were euthanized immediately after the scan, and the organs of interest were harvested and measured in a gamma counter to calculate biodistribution. […]

[7] = SK-N-SH cells, 60 min, 37 °C, mean ± SD, n = 4, read-out: IC50, competitive cell uptake affinity against 3H-NE

T1 sequence (P23975 whole entry): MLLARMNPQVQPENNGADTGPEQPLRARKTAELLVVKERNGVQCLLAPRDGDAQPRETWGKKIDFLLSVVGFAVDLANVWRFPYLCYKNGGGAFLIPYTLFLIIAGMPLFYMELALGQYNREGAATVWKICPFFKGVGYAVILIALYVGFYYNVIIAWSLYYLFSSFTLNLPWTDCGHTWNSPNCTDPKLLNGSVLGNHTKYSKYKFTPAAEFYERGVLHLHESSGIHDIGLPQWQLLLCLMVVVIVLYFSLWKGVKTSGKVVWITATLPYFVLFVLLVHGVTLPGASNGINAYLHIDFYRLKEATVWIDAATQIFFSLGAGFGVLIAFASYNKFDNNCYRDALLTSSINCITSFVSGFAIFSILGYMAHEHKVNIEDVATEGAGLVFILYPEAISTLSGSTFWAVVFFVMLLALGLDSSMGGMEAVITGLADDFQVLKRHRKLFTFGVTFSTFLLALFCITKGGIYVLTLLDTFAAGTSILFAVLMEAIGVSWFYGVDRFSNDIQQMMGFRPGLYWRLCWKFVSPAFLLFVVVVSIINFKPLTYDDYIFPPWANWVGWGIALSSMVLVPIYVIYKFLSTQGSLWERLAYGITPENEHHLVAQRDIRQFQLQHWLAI
T2 sequence (Q63380 1-617): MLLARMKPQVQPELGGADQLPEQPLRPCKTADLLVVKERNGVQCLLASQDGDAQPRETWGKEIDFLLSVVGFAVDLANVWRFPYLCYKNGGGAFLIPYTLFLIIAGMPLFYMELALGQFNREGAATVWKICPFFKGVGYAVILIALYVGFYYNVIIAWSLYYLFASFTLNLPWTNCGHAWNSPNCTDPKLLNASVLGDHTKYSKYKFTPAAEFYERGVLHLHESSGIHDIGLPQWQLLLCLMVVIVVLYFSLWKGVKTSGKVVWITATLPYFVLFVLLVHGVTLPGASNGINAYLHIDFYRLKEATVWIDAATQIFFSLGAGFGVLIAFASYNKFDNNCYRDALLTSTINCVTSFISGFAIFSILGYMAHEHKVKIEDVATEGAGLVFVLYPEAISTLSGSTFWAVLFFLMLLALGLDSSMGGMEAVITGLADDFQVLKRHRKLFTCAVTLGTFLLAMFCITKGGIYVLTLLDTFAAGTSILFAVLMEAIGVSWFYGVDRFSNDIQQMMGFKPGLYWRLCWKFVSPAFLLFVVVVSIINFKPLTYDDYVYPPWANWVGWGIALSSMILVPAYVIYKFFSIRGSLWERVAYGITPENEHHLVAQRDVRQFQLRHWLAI
T3 sequence (G1TDF9 1-617): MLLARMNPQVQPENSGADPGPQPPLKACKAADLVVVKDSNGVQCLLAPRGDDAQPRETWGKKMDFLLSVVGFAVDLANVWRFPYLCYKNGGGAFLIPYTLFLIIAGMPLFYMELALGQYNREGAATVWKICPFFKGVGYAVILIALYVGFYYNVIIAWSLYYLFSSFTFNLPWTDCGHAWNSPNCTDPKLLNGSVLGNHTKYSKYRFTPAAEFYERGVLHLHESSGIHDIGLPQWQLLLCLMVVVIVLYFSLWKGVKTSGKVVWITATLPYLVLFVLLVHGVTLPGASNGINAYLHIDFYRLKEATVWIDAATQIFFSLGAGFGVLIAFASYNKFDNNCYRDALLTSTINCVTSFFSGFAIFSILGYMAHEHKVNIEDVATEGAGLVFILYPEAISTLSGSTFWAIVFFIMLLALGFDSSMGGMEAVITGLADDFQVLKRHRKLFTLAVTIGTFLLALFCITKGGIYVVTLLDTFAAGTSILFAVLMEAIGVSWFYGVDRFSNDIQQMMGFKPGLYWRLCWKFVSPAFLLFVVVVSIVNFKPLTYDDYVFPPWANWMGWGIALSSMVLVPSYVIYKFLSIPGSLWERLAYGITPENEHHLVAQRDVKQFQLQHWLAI

Q: With `N=C(N)NCCc1ccc(O)c(F)c1` [3F-PHPG, 3-fluoro-4-hydroxyphenethylguanidine] as the compound, how does the IC50 [1, 7] read?
A: 780 ± 60 nM

Q: And the heart-to-liver ratio [2]?
A: 2.5 ± 0.3

Q: Which results are given for `N=C(N)NCCc1ccc(F)c(O)c1` [4F-MHPG, 4-fluoro-3-hydroxyphenethylguanidine]?
A: IC50 [1, 7]: 2780 ± 1220 nM; heart-to-liver ratio [2]: 2.2 ± 0.8

Q: With `NCCc1cc(O)c(O)cc1F` [6F-DA, 6-fluorodopamine] as the compound, how does the IC50 [1] read?
A: 1200 ± 330 nM

Q: For `N=C(N)NCCc1ccc(OCCCF)c(F)c1` [AF78, 1-(3-fluoro-4-(3-fluoropropoxy)phenethyl)guanidine], which IC50 [1, 7] is on record?
A: 420 ± 140 nM

Q: And the “fold higher affinity of AF78 relative to MIBG” value ([1]; ratio of IC50 values, SK-N-SH cells)?
A: 4.2 fold

Q: And the heart-to-blood pool ratio ([3]; 5 min postinjection)?
A: 2.03 ± 0.53

Q: What about the heart-to-liver ratio ([3]; 5 min postinjection) of the same compound?
A: 0.38 ± 0.29

Q: What about the heart-to-liver ratio ([3]; 30 min postinjection) of the same compound?
A: 0.95 ± 0.20

Q: And the “absolute SUV in the blood pool” value ([3]; 60 min postinjection)?
A: 0.72 ± 0.34 SUV

Q: What about the “absolute SUV in the liver” value ([3]; 60 min postinjection) of the same compound?
A: 0.91 ± 0.47 SUV

Q: And the heart-to-blood pool ratio ([3]; 60 min postinjection)?
A: 1.82 ± 0.71

Q: What about the heart-to-liver ratio ([3]; 60 min postinjection) of the same compound?
A: 1.60 ± 0.38

Q: What about the “cardiac SUV” value ([3]; heart, 5 min postinjection) of the same compound?
A: 1.74 ± 0.24 SUV

Q: And the “cardiac uptake, mean SUV” value ([3]; heart, 60 min postinjection)?
A: 1.46 ± 0.18 SUV

Q: And the “cardiac mean SUV after DMI chase” value ([4]; DMI 1 mg/kg 10 min after tracer)?
A: 1.40 ± 0.07 SUV

Q: And the “cardiac mean SUV after DMI blocking” value ([4]; DMI injected 10 min before tracer)?
A: 0.45 ± 0.05 SUV

Q: What about the “cardiac mean SUV after intermittent TYR chase” value ([4]; tyramine 50 µg/kg 5 times at 10-min intervals) of the same compound?
A: 0.92 ± 0.20 SUV

Q: And the “cardiac uptake upon PhB pretreatment” value ([5]; PhB 50 mg/kg 10 min before tracer, time-activity curves)?
A: decreased rapidly

Q: What about the “organ-to-blood ratios, early (10 min) versus late (60 min) phase” value ([5]; biodistribution study, controls) of the same compound?
A: unchanged

Q: What about the “cardiac uptake in the DMI pretreatment group” value [6] of the same compound?
A: reduced significantly

Q: Which IC50 [1, 7] does the source give for `N=C(N)NCc1ccc(OCCCF)c(Br)c1` [FBBG, flubrobenguane] here?
A: 2280 ± 1050 nM

Q: For `CN[C@@H](C)[C@H](O)c1cccc(O)c1` [HED, metahydroxyephedrine], which IC50 [1] is on record?
A: 390 ± 110 nM

Q: Which IC50 [1, 7] does the source give for `N=C(N)NCc1cccc(I)c1` [MIBG, metaiodobenzylguanidine, reference compound] here?
A: 1750 ± 470 nM

Q: What about the “cardiac uptake in the DMI pretreatment group” value [6] of the same compound?
A: reduced significantly
